Test results from ChEMBL document CHEMBL1201862, “PubChem BioAssay data set” (2004).
Activity calls are given as the source filed them. Rule as the data show it, for most assays here: actives have a measured EC50 and inactives only a lower limit.

How the values were obtained:
[1] = HEK-293T cell viability reduction – luminescence, B-cell screen hits, cytotoxicity control for BCR NF-kB inhibitor project, dose response (AID 489021); assay type: functional, cell-based;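 also: HEK-293T cells carrying an NF-kB luciferase reporter; cells exposed to compound for about 14 hours before viability readout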
[2] = alpha-synuclein stem-loop luciferase translation blockers – H4 neuroglioma cells, luminescence, confirmation (AID 1988); assay type: functional, cell-based
[3] = Luminescence Cell-Based Dose Response HTS to Identify Inhibitors of 5'UTR Stem-Loop Driven Prion Protein mRNA Translation in H4 Neuroglioblastoma Cells. [Related pubchem assays: 1827 (Project Summary), 1813 (Primary HTS)]; assay type: functional
[4] = luciferase reporter signal suppression in cells – H4 neuroglioma cells, luminescence, dose response (AID 1990); assay type: functional, cell-based
[5] = tested on: H4; test: Luminescence Cell-Based Dose Response HTS to Identify Activators of 5'UTR Stem-Loop Driven Prion Protein mRNA Translation in H4 Neuroglioblastoma Cells. [Related pubchem assays: 1829 (Project Summary), 1814 (Primary HTS)]; assay type: functional; details: Homo sapiens
[6] = Luminescence Cell-Based Dose Response HTS to Identify Activators of Luciferase Translation or Activity in H4 […] Cells. [Related pubchem assays: 1829 (Project Summary), 1814 (Primary HTS)]; assay type: functional
[7] = target: T1, Protein skinhead-1 (Caenorhabditis elegans, UniProt P34707); assay type: functional
T1 sequence (P34707 whole entry): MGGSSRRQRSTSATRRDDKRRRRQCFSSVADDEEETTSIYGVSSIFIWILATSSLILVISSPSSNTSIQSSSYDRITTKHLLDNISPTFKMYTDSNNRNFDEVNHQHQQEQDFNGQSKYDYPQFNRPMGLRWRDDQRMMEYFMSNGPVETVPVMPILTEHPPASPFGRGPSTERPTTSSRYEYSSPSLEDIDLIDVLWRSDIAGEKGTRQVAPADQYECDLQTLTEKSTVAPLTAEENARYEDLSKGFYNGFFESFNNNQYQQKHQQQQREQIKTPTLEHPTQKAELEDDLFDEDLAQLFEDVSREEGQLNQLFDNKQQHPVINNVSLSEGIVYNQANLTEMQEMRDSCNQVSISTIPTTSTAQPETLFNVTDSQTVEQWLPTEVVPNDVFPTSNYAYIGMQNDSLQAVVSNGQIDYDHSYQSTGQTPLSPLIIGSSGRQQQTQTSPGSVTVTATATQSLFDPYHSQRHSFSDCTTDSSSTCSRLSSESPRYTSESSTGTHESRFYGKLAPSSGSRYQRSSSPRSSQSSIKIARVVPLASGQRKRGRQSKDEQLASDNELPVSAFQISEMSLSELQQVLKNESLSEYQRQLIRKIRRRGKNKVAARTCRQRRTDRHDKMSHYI

[8] = target: T2, Heat shock factor protein 1 (Mus musculus, UniProt P38532); test: decrease of HSF1-responsive luciferase luminescence – cell-based, NIH3T3, dose retest, confirmation (AID 2382); assay type: functional;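 also: NIH3T3 fibroblasts with HSF1-driven luciferase reporter stressed by proteasome inhibitor MG132; luminescence from HSF1-driven luciferase expression after 8 hours of MG132 stress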
T2 sequence (P38532 whole entry): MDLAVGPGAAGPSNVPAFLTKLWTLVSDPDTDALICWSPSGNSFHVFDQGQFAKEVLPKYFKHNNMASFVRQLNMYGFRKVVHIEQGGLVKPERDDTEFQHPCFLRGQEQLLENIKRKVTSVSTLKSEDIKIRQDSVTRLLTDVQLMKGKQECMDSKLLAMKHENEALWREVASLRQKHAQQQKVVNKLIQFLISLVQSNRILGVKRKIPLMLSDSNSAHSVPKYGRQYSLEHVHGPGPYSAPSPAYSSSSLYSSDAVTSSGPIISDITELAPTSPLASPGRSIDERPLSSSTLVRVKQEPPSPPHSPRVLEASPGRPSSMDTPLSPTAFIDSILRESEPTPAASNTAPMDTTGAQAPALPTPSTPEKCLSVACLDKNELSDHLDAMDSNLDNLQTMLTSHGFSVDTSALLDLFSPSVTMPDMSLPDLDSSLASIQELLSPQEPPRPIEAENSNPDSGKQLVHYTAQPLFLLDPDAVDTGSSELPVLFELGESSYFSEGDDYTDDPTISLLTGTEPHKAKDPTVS

[9] = Luminescence Cell-Based Dose Confirmation HTS to Identify Activators of 5'UTR Stem-Loop Driven Alpha-Synuclein mRNA Translation in H4 Neuroglioblastoma Cells. [Related pubchem assays: 1829 (Project Summary), 1814 (Primary HTS)]; assay type: functional
[10] = target: T3, Aminopeptidase N (Plasmodium falciparum FcB1/Columbia, UniProt O96935); test: malaria alanyl aminopeptidase activity blockers – biochemical, fluorogenic H-Leu-NHMec substrate, 1536-well (AID 1445); design: species or system Plasmodium falciparum 3D7, 3D7
T3 sequence (O96935 whole entry): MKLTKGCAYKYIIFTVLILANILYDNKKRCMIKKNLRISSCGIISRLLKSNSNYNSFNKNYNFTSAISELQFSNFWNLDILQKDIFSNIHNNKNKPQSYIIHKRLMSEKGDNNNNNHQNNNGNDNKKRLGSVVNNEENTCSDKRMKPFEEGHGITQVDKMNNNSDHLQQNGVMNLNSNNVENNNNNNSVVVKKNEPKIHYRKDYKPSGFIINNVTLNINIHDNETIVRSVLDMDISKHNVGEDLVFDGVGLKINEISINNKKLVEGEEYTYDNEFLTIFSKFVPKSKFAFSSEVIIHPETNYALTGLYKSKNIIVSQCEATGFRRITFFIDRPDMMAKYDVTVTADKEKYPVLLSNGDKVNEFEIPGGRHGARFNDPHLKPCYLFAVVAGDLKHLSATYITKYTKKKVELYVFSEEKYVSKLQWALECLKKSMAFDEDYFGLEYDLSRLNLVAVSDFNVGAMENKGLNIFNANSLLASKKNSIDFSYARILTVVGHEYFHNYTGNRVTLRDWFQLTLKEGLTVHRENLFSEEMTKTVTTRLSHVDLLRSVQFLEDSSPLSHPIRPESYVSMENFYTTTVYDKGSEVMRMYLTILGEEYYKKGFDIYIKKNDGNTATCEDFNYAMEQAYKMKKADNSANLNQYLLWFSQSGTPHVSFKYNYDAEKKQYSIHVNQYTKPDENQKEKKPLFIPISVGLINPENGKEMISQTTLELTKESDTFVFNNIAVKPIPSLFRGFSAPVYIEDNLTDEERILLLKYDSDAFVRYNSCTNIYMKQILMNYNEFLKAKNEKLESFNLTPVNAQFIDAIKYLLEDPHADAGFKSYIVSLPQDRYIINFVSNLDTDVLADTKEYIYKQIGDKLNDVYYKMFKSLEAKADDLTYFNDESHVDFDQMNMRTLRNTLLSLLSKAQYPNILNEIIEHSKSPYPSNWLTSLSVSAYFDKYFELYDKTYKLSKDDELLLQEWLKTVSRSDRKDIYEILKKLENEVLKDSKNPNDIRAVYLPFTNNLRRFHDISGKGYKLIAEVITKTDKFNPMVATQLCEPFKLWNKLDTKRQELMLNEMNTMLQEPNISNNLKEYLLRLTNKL

[11] = tested on: HEK293; test: cells; assay type: functional, cell-based; details: Homo sapiens
[12] = tested on: HEK293; test: inhibition of NOD1-driven NF-kB reporter – cell-based, luminescence, uHTS, primary screen (AID 1578); assay type: functional; details: Homo sapiens
[13] = tested on: HEK293; test: NOD2 signaling inhibitors in MDP-stimulated cells, cell-based, uHTS, luminescence (AID 2001); assay type: functional; details: Homo sapiens
[14] = tested on: HEK293; test: cells; assay type: functional, cell-based; details: Homo sapiens; remark: listed apart in the source
[15] = tested on: HEK293; test: EBV LMP1 TES2 canonical NF-kB signalling blockers – cell-based, HEK293, luciferase, cherry-pick, dose response (AID 588343); assay type: functional, Homo sapiens; details: hek293
[16] = Trypanosoma cruzi growth suppression in host cells – NIH3T3 host cells, beta-gal luminescence, confirmation (AID 2044); assay type: functional, cell-based;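 also: intracellular parasites grown in NIH/3T3 mouse fibroblasts as host cells; luminescent beta-galactosidase reporter signal from transgenic T. cruzi replicating inside host cells; inhibitors lower the luminescence signal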
[17] = NIH3T3 cell viability loss – ATP luminescence, mouse fibroblasts, counter-screen, dose response (AID 2010); assay type: functional, cell-based;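 also: cells exposed to compound for about 90 hours before reading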
[18] = target: Luciferin 4-monooxygenase (Photinus pyralis, UniProt P08659); test: Counter Screen for Luciferase-based Assay Positives. [Related pubchem assays: 620, 618, 411 ]
[19] = tested on: HT-1080; test: HT1080 cell viability loss – fluorescence readout (AID 620); assay type: functional, cell-based; details: Homo sapiens
[20] = target: T4, Histone-lysine N-methyltransferase NSD2 (Homo sapiens, UniProt O96028); assay type: biochemical
T4 sequence (O96028 whole entry): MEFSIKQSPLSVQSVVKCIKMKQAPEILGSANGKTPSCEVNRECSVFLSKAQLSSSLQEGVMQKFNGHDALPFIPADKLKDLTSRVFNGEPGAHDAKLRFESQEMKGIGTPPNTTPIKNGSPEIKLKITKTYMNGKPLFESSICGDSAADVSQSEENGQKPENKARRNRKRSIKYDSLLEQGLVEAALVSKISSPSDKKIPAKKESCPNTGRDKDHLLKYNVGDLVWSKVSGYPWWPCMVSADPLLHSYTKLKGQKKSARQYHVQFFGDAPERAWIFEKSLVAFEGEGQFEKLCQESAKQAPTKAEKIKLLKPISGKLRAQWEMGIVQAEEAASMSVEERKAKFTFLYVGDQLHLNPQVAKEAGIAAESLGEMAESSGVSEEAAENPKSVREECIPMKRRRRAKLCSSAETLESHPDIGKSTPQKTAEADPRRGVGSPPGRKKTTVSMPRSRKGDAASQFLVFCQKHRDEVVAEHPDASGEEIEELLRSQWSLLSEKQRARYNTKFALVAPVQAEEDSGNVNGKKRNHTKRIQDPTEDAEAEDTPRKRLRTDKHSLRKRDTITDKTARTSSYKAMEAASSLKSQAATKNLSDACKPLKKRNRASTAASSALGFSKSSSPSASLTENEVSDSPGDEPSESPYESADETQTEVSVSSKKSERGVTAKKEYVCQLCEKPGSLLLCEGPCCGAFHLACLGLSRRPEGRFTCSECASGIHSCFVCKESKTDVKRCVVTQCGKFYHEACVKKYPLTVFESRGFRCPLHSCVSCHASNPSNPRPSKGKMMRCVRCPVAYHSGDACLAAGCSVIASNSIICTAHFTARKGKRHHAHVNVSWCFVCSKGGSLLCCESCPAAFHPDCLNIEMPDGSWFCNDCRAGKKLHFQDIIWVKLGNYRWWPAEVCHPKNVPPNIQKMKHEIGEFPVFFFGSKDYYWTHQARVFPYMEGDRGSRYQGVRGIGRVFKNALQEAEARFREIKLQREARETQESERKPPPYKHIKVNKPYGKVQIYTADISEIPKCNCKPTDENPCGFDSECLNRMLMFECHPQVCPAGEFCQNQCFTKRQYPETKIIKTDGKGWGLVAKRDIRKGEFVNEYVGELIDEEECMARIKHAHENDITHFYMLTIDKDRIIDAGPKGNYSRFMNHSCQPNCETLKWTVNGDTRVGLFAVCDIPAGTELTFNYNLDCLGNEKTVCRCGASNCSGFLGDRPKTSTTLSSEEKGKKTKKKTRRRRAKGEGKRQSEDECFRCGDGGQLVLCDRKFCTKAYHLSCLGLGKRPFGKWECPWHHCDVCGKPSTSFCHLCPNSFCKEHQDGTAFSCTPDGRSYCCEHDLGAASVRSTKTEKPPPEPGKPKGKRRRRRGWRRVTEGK

Sequence of Luciferin 4-monooxygenase (P08659 whole entry): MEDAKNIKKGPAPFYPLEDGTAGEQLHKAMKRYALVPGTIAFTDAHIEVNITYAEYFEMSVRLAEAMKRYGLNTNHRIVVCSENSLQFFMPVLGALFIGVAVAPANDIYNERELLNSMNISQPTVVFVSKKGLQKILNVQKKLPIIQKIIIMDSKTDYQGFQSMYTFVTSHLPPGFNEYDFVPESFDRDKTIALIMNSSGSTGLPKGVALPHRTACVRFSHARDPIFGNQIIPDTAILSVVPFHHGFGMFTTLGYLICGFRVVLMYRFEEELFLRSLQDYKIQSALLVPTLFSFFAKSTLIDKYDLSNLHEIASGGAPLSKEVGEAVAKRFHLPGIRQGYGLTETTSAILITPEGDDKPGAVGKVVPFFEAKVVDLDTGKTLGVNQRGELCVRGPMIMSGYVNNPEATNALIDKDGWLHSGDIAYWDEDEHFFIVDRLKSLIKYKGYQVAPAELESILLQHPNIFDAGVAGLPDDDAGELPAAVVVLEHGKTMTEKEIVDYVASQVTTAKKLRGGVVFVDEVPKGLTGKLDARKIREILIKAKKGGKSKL

## COc1ccccc1/C=C1\SC(=S)N(CCC(=O)Nc2cc(C)on2)C1=O
[1]
  IC50: > 80 µM (inactive)
[2]
  EC50: > 120 µM (not active)
[3]
  EC50: 27.8 µM (active)
[4]
  EC50: 30 µM (active)

## Cc1ccc2c(c1)c(C)c(C)n2CC(O)Cn1nnc2ccccc21 (stereo not given)
[5]
  EC50: 22.3 µM (active)
[6]
  EC50: 63.4 µM (active)
[7]
  IC50: > 100 µM (inactive)
[8]
  EC50: > 195 µM (not active)
[9]
  EC50: 20.9 µM (active)

## CCc1cc2c(CN3CCN(C)CC3)cc(=O)oc2cc1O
[10]
  IC50: 47.7 µM (active)

## Cc1cc(C)nc(Sc2ccc([N+](=O)[O-])cc2[N+](=O)[O-])n1
[1]
  IC50: > 80 µM (inactive)
[11]
  IC50: 6.2 µM (active)
[12]
  EC50: > 20 µM (inactive)
[13]
  IC50: 14.3 µM (inactive)
[14]
  IC50: > 20 µM (inactive)

## Cc1c(CCC(=O)O)c(=O)oc2cc3occ(-c4ccccc4)c3cc12
[10]
  IC50: 26.7 µM (active)

## O=C(COC(=O)c1cc(S(=O)(=O)Nc2ccccc2Cl)ccc1O)Nc1nc2ccccc2s1
[10]
  IC50: 44.4 µM (active)

## Cc1ccc(C(=O)NC2CCN(CC(=O)Nc3cccc([N+](=O)[O-])c3)CC2)cc1
[10]
  IC50: 102 µM (active)

## Cc1cccc(-n2nc3c(c2NC(=O)C2CC2)CS(=O)(=O)C3)c1C
[5]
  EC50: > 120 µM (not active)
[6]
  EC50: > 120 µM (not active)
[7]
  IC50: > 100 µM (inactive)
[9]
  EC50: > 120 µM (not active)

## CCN1CCN(Cc2ccc(NC(=O)c3ccc(C)c(NC(=O)c4ccno4)c3)cc2C(F)(F)F)CC1
[11]
  IC50: > 20 µM (inactive)
[12]
  EC50: 7.63 µM (active)
[13]
  IC50: 11.9 µM (inactive)
[14]
  IC50: > 20 µM (inactive)
[15]
  AC50: 0.0692 µM (active)

## CCCCN1C(=O)NC(=O)/C(=C(/C)NNC(=O)Nc2ccccc2)C1=O
[5]
  EC50: > 120 µM (not active)
[6]
  EC50: 14.3 µM (active)
[9]
  EC50: > 120 µM (not active)

## COc1ccc(-c2ccc(C(C)=O)cc2)cc1[C@H]1[C@H]2C=CC[C@@H](C)[C@@H]2C(=O)N1Cc1ccccc1
[1]
  IC50: > 80 µM (inactive)
[16]
  EC50: 1.15 µM (active)
[17]
  EC50: 18.9 µM (active)

## CCOc1ccc(-c2cc(CCCC(=O)NCCCOC)no2)cc1
[1]
  IC50: > 80 µM (inactive)
[18]
  EC50: > 100 µM (not active)
[19]
  EC50: > 50 µM (not active)
[4]
  EC50: 0.841 µM (active)

## CO/C(O)=C1\CSC\C1=N\c1ccccc1NC(=O)c1ccccc1C(=O)O
[5]
  EC50: 119 µM (active)
[6]
  EC50: > 120 µM (not active)
[9]
  EC50: > 120 µM (not active)

## O=C(CCCO)N/N=C/c1cc(Br)ccc1O
[10]
  IC50: 21.7 µM (active)

## CCCCN(CC)CCNC(=O)c1cc2c(-c3ccccc3F)nn(C)c2s1
[20]
  AC50: > 20 µM (inactive)
[5]
  EC50: > 120 µM (not active)
[6]
  EC50: > 120 µM (not active)
[9]
  EC50: 8.55 µM (active)
